According to ChEMBL document CHEMBL1649156, “Antianaerobic activity of sulopenem compared to six other agents” (2009):
In brackets after ≈: the same amount, converted by molar mass.

Legend:
Type in all cases: functional
[1] = tested on: Enterocloster clostridioformis; assay: Antimicrobial activity in Clostridium clostridioforme by CLSI agar dilution method
[2] = tested on: Fusobacterium necrophorum; assay: Antimicrobial activity in Fusobacterium necrophorum by CLSI agar dilution method
[3] = tested on: Prevotella disiens; assay: Antimicrobial activity in Prevotella disiens by CLSI agar dilution method
[4] = tested on: Prevotella melaninogenica; assay: Antimicrobial activity in Prevotella melaninogenica by CLSI agar dilution method
[5] = tested on: Bacteroides uniformis; assay: Antimicrobial activity in Bacteroides uniformis by CLSI agar dilution method
[6] = tested on: Lactobacillus; assay: Antimicrobial activity in Lactobacillus by CLSI agar dilution method
[7] = tested on: Clostridium butyricum; assay: Antimicrobial activity in Clostridium butyricum by CLSI agar dilution method
[8] = tested on: Finegoldia magna; assay: Antimicrobial activity in Finegoldia magna by CLSI agar dilution method
[9] = tested on: Bifidobacterium; assay: Antimicrobial activity in Bifidobacterium by CLSI agar dilution method
[10] = tested on: Thomasclavelia ramosa; assay: Antimicrobial activity in Clostridium ramosum by CLSI agar dilution method
[11] = tested on: Prevotella intermedia; assay: Antimicrobial activity in Prevotella intermedia by CLSI agar dilution method
[12] = tested on: [Clostridium] innocuum; assay: Antimicrobial activity in Clostridium innocuum by CLSI agar dilution method
[13] = tested on: Parvimonas micra; assay: Antimicrobial activity in Micromonas micros by CLSI agar dilution method
[14] = tested on: Prevotella corporis; assay: Antimicrobial activity in Prevotella corporis by CLSI agar dilution method
[15] = tested on: Bacteroides ovatus; assay: Antimicrobial activity in Bacteroides ovatus by CLSI agar dilution method
[16] = tested on: Prevotella bergensis; assay: Antimicrobial activity in Prevotella bergensis by CLSI agar dilution method; details: Hallella bergensis
[17] = tested on: Clostridioides difficile; assay: Antimicrobial activity in Clostridium difficile by CLSI agar dilution method
[18] = tested on: Anaerococcus prevotii; assay: Antimicrobial activity in Anaerococcus prevotii by CLSI agar dilution method
[19] = tested on: Clostridium cadaveris; assay: Antimicrobial activity in Clostridium cadaveris by CLSI agar dilution method
[20] = tested on: Clostridium tertium; assay: Antimicrobial activity in Clostridium tertium by CLSI agar dilution method
[21] = tested on: Prevotella nigrescens; assay: Antimicrobial activity in Prevotella nigrescens by CLSI agar dilution method
[22] = tested on: Bacteroides thetaiotaomicron; assay: Antimicrobial activity in Bacteroides thetaiotaomicron by CLSI agar dilution method
[23] = tested on: Hoylesella loescheii; assay: Antimicrobial activity in Prevotella loescheii by CLSI agar dilution method
[24] = tested on: Bacteroides stercoris; assay: Antimicrobial activity in Bacteroides stercoris by CLSI agar dilution method
[25] = tested on: Prevotella bivia; assay: Antimicrobial activity in Prevotella bivia by CLSI agar dilution method
[26] = tested on: Porphyromonas gingivalis; assay: Antimicrobial activity in Porphyromonas gingivalis by CLSI agar dilution method
[27] = tested on: Prevotella buccae; assay: Antimicrobial activity in Prevotella buccae by CLSI agar dilution method; details: Segatella buccae
[28] = tested on: Fusobacterium nucleatum; assay: Antimicrobial activity in Fusobacterium nucleatum by CLSI agar dilution method
[29] = tested on: Hoylesella oralis; assay: Antimicrobial activity in Prevotella oralis group by CLSI agar dilution method
[30] = tested on: Paraclostridium bifermentans; assay: Antimicrobial activity in Clostridium bifermentans by CLSI agar dilution method
[31] = tested on: Parabacteroides distasonis; assay: Antimicrobial activity in Bacteroides distasonis by CLSI agar dilution method
[32] = tested on: Eggerthella lenta; assay: Antimicrobial activity in Eggerthella lenta by CLSI agar dilution method
[33] = tested on: Tissierella praeacuta; assay: Antimicrobial activity in Clostridium hastiforme by CLSI agar dilution method
[34] = tested on: Clostridium perfringens; assay: Antimicrobial activity in Clostridium perfringens by CLSI agar dilution method
[35] = tested on: Clostridium sp.; assay: Antimicrobial activity in Clostridium sp. by CLSI agar dilution method
[36] = tested on: Prevotella sp.; assay: Antimicrobial activity in Prevotella sp.by CLSI agar dilution method
[37] = tested on: Phocaeicola vulgatus; assay: Antimicrobial activity in Bacteroides vulgatus by CLSI agar dilution method
[38] = tested on: Bacteroides fragilis; assay: Antimicrobial activity in Bacteroides fragilis by CLSI agar dilution method
[39] = tested on: Peptoniphilus asaccharolyticus; assay: Antimicrobial activity in Peptoniphilus asaccharolyticus by CLSI agar dilution method
[40] = tested on: Prevotella veroralis; assay: Antimicrobial activity in Prevotella veroralis by CLSI agar dilution method
[41] = tested on: Peptostreptococcus anaerobius; assay: Antimicrobial activity in Peptostreptococcus anaerobius by CLSI agar dilution method
[42] = tested on: Fusobacterium mortiferum; assay: Antimicrobial activity in Fusobacterium mortiferum by CLSI agar dilution method
[43] = tested on: Paeniclostridium sordellii; assay: Antimicrobial activity in Clostridium sordellii by CLSI agar dilution method; details: Paraclostridium sordellii
[44] = tested on: Fusobacterium varium; assay: Antimicrobial activity in Fusobacterium varium by CLSI agar dilution method
[45] = tested on: Prevotella denticola; assay: Antimicrobial activity in Prevotella denticola by CLSI agar dilution method
[46] = tested on: Anaerococcus tetradius; assay: Antimicrobial activity in Anaerococcus tetradius by CLSI agar dilution method
[47] = tested on: Prevotella salivae; assay: Antimicrobial activity in Prevotella salivae by CLSI agar dilution method; details: Segatella salivae
[48] = tested on: Actinomyces; assay: Antimicrobial activity in Actinomyces by CLSI agar dilution method

## CCC[C@@H]1C[C@@H](C(=O)N[C@@H]([C@H]2O[C@H](SC)[C@H](O)[C@@H](O)[C@H]2O)[C@H](C)Cl)N(C)C1 [CLINDAMYCIN]
[1]
  MIC: 0.03 µg/mL (≈ 0.0706 µM)
[2]
  MIC: ≤ 0.016 µg/mL
  MIC50: 0.03 µg/mL (≈ 0.0706 µM)
[3]
  MIC: ≤ 0.016 µg/mL
  MIC50: ≤ 0.016 µg/mL
[4]
  MIC: ≤ 0.016 µg/mL
  MIC50: ≤ 0.016 µg/mL
  MIC90: 0.06 µg/mL (≈ 0.141 µM)
[5]
  MIC: > 1 µg/mL
  MIC50: 2 µg/mL (≈ 4.71 µM)
[6]
  MIC50: 0.5 µg/mL (≈ 1.18 µM)
  MIC90: 4 µg/mL (≈ 9.41 µM)
[7]
  MIC: 2 µg/mL (≈ 4.71 µM)
[8]
  MIC50: 0.125 µg/mL (≈ 0.294 µM)
  MIC90: 2 µg/mL (≈ 4.71 µM)
[9]
  MIC50: 0.03 µg/mL (≈ 0.0706 µM)
  MIC90: > 32 µg/mL
[10]
  MIC: 2 µg/mL (≈ 4.71 µM)
[11]
  MIC: ≤ 0.016 µg/mL
  MIC50: ≤ 0.016 µg/mL
  MIC90: ≤ 0.016 µg/mL
[12]
  MIC: 0.03 µg/mL (≈ 0.0706 µM)
[13]
  MIC: 0.125 µg/mL (≈ 0.294 µM)
  MIC50: 0.125 µg/mL (≈ 0.294 µM)
  MIC90: 0.25 µg/mL (≈ 0.588 µM)
[14]
  MIC50: ≤ 0.016 µg/mL
[15]
  MIC50: 2 µg/mL (≈ 4.71 µM)
  MIC90: > 32 µg/mL
[16]
  MIC: ≤ 0.016 µg/mL
[17]
  MIC50: 4 µg/mL (≈ 9.41 µM)
  MIC90: > 32 µg/mL
[18]
  MIC: 0.125 µg/mL (≈ 0.294 µM)
[19]
  MIC: 0.06 µg/mL (≈ 0.141 µM)
[20]
  MIC: 8 µg/mL (≈ 18.8 µM)
  MIC50: 8 µg/mL (≈ 18.8 µM)
[21]
  MIC: ≤ 0.016 µg/mL
  MIC50: ≤ 0.016 µg/mL
  MIC90: ≤ 0.016 µg/mL
[22]
  MIC50: 4 µg/mL (≈ 9.41 µM)
  MIC90: > 32 µg/mL
[23]
  MIC: ≤ 0.016 µg/mL
[24]
  MIC: > 4 µg/mL
  MIC50: 8 µg/mL (≈ 18.8 µM)
[25]
  MIC50: ≤ 0.016 µg/mL
  MIC90: > 32 µg/mL
[26]
  MIC: ≤ 0.016 µg/mL
[27]
  MIC: ≤ 0.016 µg/mL
  MIC50: ≤ 0.016 µg/mL
  MIC90: ≤ 0.016 µg/mL
[28]
  MIC50: 0.06 µg/mL (≈ 0.141 µM)
  MIC90: 0.125 µg/mL (≈ 0.294 µM)
[29]
  MIC: ≤ 0.016 µg/mL
[30]
  MIC: 0.125 µg/mL (≈ 0.294 µM)
[31]
  MIC50: 4 µg/mL (≈ 9.41 µM)
  MIC90: 16 µg/mL (≈ 37.6 µM)
[32]
  MIC50: 0.25 µg/mL (≈ 0.588 µM)
  MIC90: 1 µg/mL (≈ 2.35 µM)
[33]
  MIC: 0.06 µg/mL (≈ 0.141 µM)
[34]
  MIC50: 0.5 µg/mL (≈ 1.18 µM)
  MIC90: 2 µg/mL (≈ 4.71 µM)
[35]
  MIC50: 1 µg/mL (≈ 2.35 µM)
  MIC90: 16 µg/mL (≈ 37.6 µM)
[36]
  MIC: ≤ 0.016 µg/mL
[37]
  MIC50: 0.03 µg/mL (≈ 0.0706 µM)
  MIC90: 1 µg/mL (≈ 2.35 µM)
[38]
  MIC50: 1 µg/mL (≈ 2.35 µM)
  MIC90: > 32 µg/mL
[39]
  MIC: 0.06 µg/mL (≈ 0.141 µM)
  MIC50: 0.125 µg/mL (≈ 0.294 µM)
[40]
  MIC: ≤ 0.016 µg/mL
[41]
  MIC: ≤ 0.016 µg/mL
  MIC50: ≤ 0.016 µg/mL
  MIC90: 0.25 µg/mL (≈ 0.588 µM)
[42]
  MIC50: 0.06 µg/mL (≈ 0.141 µM)
  MIC90: 0.125 µg/mL (≈ 0.294 µM)
[43]
  MIC: 0.25 µg/mL (≈ 0.588 µM)
[44]
  MIC50: 8 µg/mL (≈ 18.8 µM)
  MIC90: 32 µg/mL (≈ 75.3 µM)
[45]
  MIC: ≤ 0.016 µg/mL
  MIC50: ≤ 0.016 µg/mL
  MIC90: 0.06 µg/mL (≈ 0.141 µM)
[46]
  MIC50: 0.5 µg/mL (≈ 1.18 µM)
  MIC90: 1 µg/mL (≈ 2.35 µM)
[47]
  MIC: ≤ 0.016 µg/mL
[48]
  MIC: 0.03 µg/mL (≈ 0.0706 µM)
  MIC50: 0.125 µg/mL (≈ 0.294 µM)
